# Assay results reported in EP0848957A1, “Fas LIGAND SOLUBILIZATION INHIBITOR” (KANEBO LTD., priority 1995, dated 1997).
# Legend:
# [1] = test system: hFas L/BHK-21 (BHK-21 cells in which human Fas L cDNA was transfected); experiment: Test for inhibition of Fas L solubilization (sFas L in culture supernatant by sandwich-ELISA); assay type: cell-based; conditions: for inhibition at 5 µM: Homo sapiens, BHK-21, 24 h, incubated 24 hours at 37°C, read-out: aFas L secretion inhibition rate (%); for IC50: BHK-21, sFas L secretion inhibition at 5, 2.5, 1.25, 0.625 µM, probit method
# Experimental: hFas L/BHK-21 (BHK-21 cells in which human Fas L cDNA was transfected)(3.5 x 10^5) was suspended in 1ml of RPMI 1640 culture medium containing 10% fetal bovine serum, and in 24 wells culture plate (Falcon 3047, Becton Dickenson Co., Ltd.) each test sample adjusted with RPMI 1640 containing 10% fetal bovine serum at the final concentration 5, 2.5, 1.25, and 0.625 µM was incubated under 5% carbon dioxide atmosphere at 37°C for 24 hours, to obtain a culture supernatant.
# The concentration of sFas L in the supernatant thus obtained was quantitatively analyzed by the sandwich-ELISA method as shown below.
# The concentration of anti Fas L antibody (NOK3)(see preparation 17) was adjusted to 10µg/ml with 0.05M sodium carbonate-sodium hydrogen carbonate buffer solution (pH 9.6), and each 50µl thereof was poured in each well of a 96-wells microplate (Immunolon 2, Dinatech Co., Ltd.) and left it overnight at 4°C to make the solid phase. Each well was washed twice with 300 µl of a washing solution consisting of a physiological saline solution adjusted at pH 7.4 with a phosphate buffer solution, containing 0.05% of Tween 20 (polyoxyethylene sorbitan monolaurate)(abbreviated as T-PBS), and then to it was added 300µl of PBS (pH 7.4) containing bovine serum albumin (abbreviated as BSA, Wako Chemical Co., Ltd), and it was left for 2 hours at 37°C to remove the supernatant.
# Then, the culture supernatant (50µl) containing a test sample were added to each well, and incubated for one hour at room temperature. After incubation, each well was washed twice with 300µl of T-PBS (pH7.4).
# The concentration of anti Fas L antibody (NOK1) labeled with biotin (see preparation 18) was adjusted to 5µg/ml by diluting with PBS (pH 7.4) containing 1% BSA, and 50µl thereof was added to the solution prepared above. The solution was reacted for one hour at room temperature, and washed twice with 300µl of T-PBS (pH 7.4).
# And then, streptoavidin-peroxidase (Amasham Lab.) was diluted 1000 times with PBS (pH 7.4) containing 1% of BSA, and 50µl thereof was added to it. The solution was incubated for 30 minutes at room temparature and was washed twice with 300µ of T-PBS (pH 7.4).
# Further, 100µl of 0.15M citric acid-sodium phosphate buffer solution (pH 5.0) containing hydrogen peroxide and o-phenylenediamine (former concentration:0.015 w/v%, latter concentration:0.2mg/ml) was added to each well and incubated for 10 minutes at room temperature.
# After incubation, 50µl of 2 N sulfuric acid was added to each well to quench the reaction, and the absorbance at 490 nm was measured by Softmax (Molecular Device Co., Ltd.)
# On the other hand, by measuring the absorbance of the sFas L solution of which the concentration was known, as a sample instead of the culture supernatant, the calibration curve was detected based on 4-logistic parameter analysis, and based on it the concentration (X) of sFas L in the culture supernatant was calculated.
# As a control, by using the concentration (A) of sFas L in the culture supernatant in case that the test sample was not added, based on the concentration (X) of sFas L in the culture supernatant in case that the sample was added, sFas secretion inhibition rate (%) at 5µM was calculated by using the following formula sFas L secretion inhibition rate (%) = (1-X/A) x 100 [formula]
# GVHD induced mouse [2] = experiment: Recovery test of GVHD induced mouse; assay type: in vivo, CBF1 mice; conditions: 2mg / mouse / day subcutaneously every day for 2 weeks
# Experimental: CBF1 mice (F1 mice of BALB/c and C57BL/6) were injected with splenocytes (5x10^7) of C57BL/6 mouse, and a week later were again injected with splenocytes 5x10^7 to induce GVHD into a mouse.
# A test sample was suspended in 0.5% CMC solution (test sample 10mg vs the CMC solution 1ml), 2mg of the test sample / mouse / day was subcutaneously administered every day for 2 weeks beginning from injection of splenocytes to the above GVHD induced mice, and this group was compared with the GVHD induced group in which any test sample was not administered (no drug administered group) and the GVHD non-induced group (non-treated group).
# The body weight of mice (g) was measured every week a week later after the first injection of splenocytes, for 6 weeks, and the total IgE amount (ng/ml) was measured every week a week later after the first injection of splenocytes, for 9 weeks, and the degree of GVHD was evaluated by change of day.
# GVHD induced mouse [3] = experiment: Prevention of the mortality of GVHD induced mouse; assay type: in vivo, CBF1 mouse; conditions: splenocytes 1x10^8; after the death of all mice of the drug non-administered group; 3 weeks observation
# Experimental: GVHD was introduced into CBF1 mouse in the same manner as in Test example 2, except for the numbers of the injected splenocytes, 1x10^8, and the test sample administered group was compared with the drug non-administered group and the non-treated group.
# The effect of test samples was evaluated by the mortality of mouse for 3 weeks after the first introduction of the splenocytes.
# [4] = Toxicity after oral administration (mortality); assay type: in vivo; conditions: 3,000mg/kg:body weight, orally administered
# Experimental: And a compound of the generic formula (I) or its pharmaceutically acceptable salt was low in toxicity. For example, when compound 4a ( 3,000mg/kg:body weight) was orally administered, the mortality was not found. Therefore, a compound of the generic formula (I) or its pharmaceutically acceptable salt is useful for preventing and treating the diseases in which apoptosis caused by binding the solubilized Fas L with Fas is considered to participate, for example, fulminant hepatitis, GVHD, AIDS, autoimmune diseases, etc.
Structure (SMILES),inhibition at 5 µM [1],IC50 [1],also measured
"CNC(=O)[C@H](Cc1cccc2ccccc12)NC(=O)[C@H](CC(C)C)C(C)C(=O)NO (stereo partly drawn) [Test sample I, [4-(N-hydroxyamino)-2(R)-isobutyl-3-methylsuccinyl]-L-3-(1-naphthyl)alanine-N-methylamide]",50%,–,–
"CNC(=O)[C@@H](NC(=O)[C@@H](CC(=O)NO)CC(C)C)c1ccc2ccccc2c1 [Test sample F, [4-(N-hydroxyamino)-2(R)-isobutylsuccinyl]-L-2-naphthylglycine-N-methylamide]",35%,–,–
"CNC(=O)[C@H](Cc1cccc2c1CCCC2)NC(=O)[C@H](CC(C)C)C(C)C(=O)NO (stereo partly drawn) [Test sample H, [4-(N-hydroxyamino)-2(R)-isobutyl-3-methylsuccinyl]-L-3-(5,6,7,8-tetrahydro-1-naphthyl)alanine-N-methylamide]",57%,–,–
"CNC(=O)[C@H](Cc1ccc(OC)cc1)NC(=O)[C@H](CC(C)C)[C@H](C)C(=O)NO [Test sample C, [4-(N-hydroxyamino)-2(R)-isobutyl-3(S)-methylsuccinyl]-L-O-methyltyrosine-N-methylamide]",> 70%,1500 nM,–
"CNC(=O)[C@H](Cc1ccccc1)NC(=O)[C@H](CC(C)C)[C@H](CSc1cccs1)C(=O)NO [Test sample D, [4-(N-hydroxyamino)-2(R)-isobutyl-3(S)-(2-thienylthiomethyl)succinyl]-L-phenylalanine-N-methylamide]",> 70%,1600 nM,–
"CNC(=O)[C@@H](NC(=O)[C@H](CC(C)C)[C@H](C)C(=O)NO)c1ccccc1 [Test sample E, [4-(N-hydroxyamino)-2(R)-isobutyl-3(S)-methylsuccinyl]-L-phenylglycine-N-methylamide]",29%,–,decrease of body weight caused by the induced GVHD (GVHD induced mouse [2]; body weight measured weekly for 6 weeks): clearly prohibited; increase of total IgE amount caused by the induced GVHD (GVHD induced mouse [2]; total IgE measured weekly for 9 weeks): clearly prohibited; survival rate (GVHD induced mouse [3]): 90%; mortality [4]: not found
"CNC(=O)[C@H](Cc1ccc(OC)cc1)NC(=O)[C@@H](CC(=O)NO)CC(C)C [Test sample A, [4-(N-hydroxyamino)-2(R)-isobutylsuccinyl]-L-O-methyltyrosine-N-methylamide]",47%,–,–
"NS(=O)(=O)c1ccc(CCNC(=O)[C@H](CC2CCCCC2)NC(=O)[C@H](CCCc2ccccc2)CC(=O)NO)cc1 [Test sample G, [4-(N-hydroxyamino)-2(R)-(3-phenylpropyl)succinyl]-L-3-cyclohexylalanine-N-[2-(4-sulfonylamidophenyl)ethyl]amide]",> 70%,1100 nM,–
"CNC(=O)[C@H](Cc1ccccc1)NC(=O)[C@H](CC(C)C)[C@H](CSc1ccccc1)C(=O)NO [Test sample B, [4-(N-hydroxyamino)-2(R)-isobutyl-3(S)-phenylthiomethylsuccinyl]-L-phenylalanine-N-methylamide]",> 70%,2200 nM,–
